For one assay, the target named is T1, CFTR (Homo sapiens, UniProt P13569).
T1 construct: Immunoprecipitations of endogenous proteins were performed on 500 μg of lysates from Caco-2 cells; host or cells: Caco-2, T84
Nature of the assay: Co-immunoprecipitation of biotinylated peptides with CFTR in Caco-2 cells. It counts as cell-based.

In another assay the test system is Caco-2 cells. Put plainly: P31-43-induced epithelial stress markers in Caco-2 cells (immunoblot). It counts as cell-based, human. The protocol:
Human colon adenocarcinoma-derived Caco-2 and T84 cells were obtained from the ATCC. Cells were maintained in T25 flask in Modified Eagle Medium (MEM) for Caco-2, or Ham's F12+DMEM (1:1) for T84, supplemented with 10% fetal bovine serum (FBS), 2 mM Glutamine+1% Non Essential Amino Acids (NEAA) and the antibiotics penicillin\streptomycin (100 units/ml) (all reagents from Lonza) (Luciani, A., et al. 2010. Cells were grown in Transwells (Corning, 3470 or 3460) under the normal condition (Luciani, A., et al. 2012). Briefly, 8×10^4 or 5×10^5 cells were seeded in 6.5-mm diameter or 12-mm diameter, respectively, and grown until the RT reached 800 to 1,200 Ω·cm2. Transwells with a pore size of 0.4 μm were used. Medium in both the apical and basolateral chambers was changed every other day. Cells were treated with 20 μg/ml of either α-gliadin peptide P31-43 or […]-69 or scrambled PGAV or modified P31-43 either biotin-tagged or not, for different time point (from 1 h short challenge up to 24 h). Cells were also treated with 50 or 100 μg/ml of […]-68 or PGAV peptides for 3 h. Caco-2 or T84 cells were also treated with: CFTR potentiators VX-770 (10 μM) or VX-532 (20 μM) (Selleck chemicals) or Genistein (10 μM) (Sigma-Aldrich) or in presence or absence of CFTR inhibitor172 (CFTRinh172, 20 μM) or 3-methyl-adenine (3-MA, 20 μM) (Calbiochem), Z-DON (20 nM, Zedira) or BAPTA-AM (10 μM, Calbiochem). The whole lysate or membrane fraction proteins of cell lines and mice intestine homogenates were obtained from treated and untreated cells or mice as described. The equal amount of protein were resolved by SDS-PAGE gel and blotted with antibodies against: SQSTM1, (Sigma Aldrich, 108k4767) 1:1000, PPARγ (Santa Cruz Biotechnology, sc7273) 1:500, BECN1 (Abcam, ab58878) 1:1000, CFTR clone M3A7 (Abcam, ab4067) 1:500, phospho-ERK1/2 (php42/44, Cell Signaling Technology, #91101) 1:1000, UVRAG (Santa Cruz Biotechnology sc8215) 1:1000, NHERF-1 (BD, 611161) 1:1000, EZRIN (BD, 610603) 1:1000, hVps34 (SigmaV9764) 1:300, biotin (Abcam, ab1227) 1:2000, PKAr2a (BD, 610625) 1:500, Ubiquitin (Cell Signaling clone P4D1, #3936) 1:1000, CHIP (Calbiochem PC711) 1:500, Caspase-1 p10 (M-20) (Santa Cruz Biotechnology, sc-514) 1:200, NLRP3 (Abcam, ab4207), 1:500, IDO1 (monoclonal; cv152) 1:1000^[80], used as primary antibodies. Normalization was performed by probing the membrane with anti-β-actin (Cell Signaling, #4970) 1:1000, anti-Gapdh (Sigma-Aldrich, G8795) 1:1000 and anti-flottilin (Abcam ab15148) 1:1000 antibodies. Immunoprecipitations of endogenous proteins were performed on 500 μg of lysates from Caco-2 cells. The proteins were incubated for 12-18 h at 4° C. with 10 ug\ml of specific antibody followed by the addition of Protein A/G-agarose beads for 4 h at 4° C. The beads were then washed three times with lysis buffer and Laemmli's sample buffer was added to the samples. The membranes were then blotted with: CFTR clone CF3 (Abcam, ab2784) 1:1000, TG2 (clone CUB7402; NeoMarkers) 1:1000, CHIP (Calbiochem PC711) 1:500, Ubiquitin (Cell Signaling clone P4D1 3936), isopeptide (Abcam 422) 1:1000, PKAR2 (BD 610625) 1:500. FIG. 5: a, Immunoprecipitation of TG2 protein 15 in Caco-2 cells challenged with […]-68, PGAV or P31-43 and blotted with HRP-streptavidin. b, Immunoprecipitation of CFTR protein in Caco-2 cells challenged with P31-43 in the presence of absence of the TG2 inhibitor ZDON or TG2 RNA silencing and 20 blotted with anti-isopeptide glutamime-lysine and anti-TG2 antibodies. c, Recombinant TG2 and/or NBD1 incubated in vitro with P31-43 and solved in native page in the presence or absence of Ca2+. d, Immunoprecipitation of CFTR protein and immunblot with anti-CFTR antibodies or anti-TG2 antibodies. e, Immunoprecipitation of CFTR protein and immunoblot with anti-TG2 or anti-CFTR antibodies; effects of ZDON and BAPTA-AM. f, In situ detection of TG2 activity in Caco-2 cells pulsed with Ca2+ in the presence or absence of VX-770 or Z-DON. […]
A general note: Immunoblotting shows a protein as a band on a membrane.

T1 sequence (P13569 whole entry): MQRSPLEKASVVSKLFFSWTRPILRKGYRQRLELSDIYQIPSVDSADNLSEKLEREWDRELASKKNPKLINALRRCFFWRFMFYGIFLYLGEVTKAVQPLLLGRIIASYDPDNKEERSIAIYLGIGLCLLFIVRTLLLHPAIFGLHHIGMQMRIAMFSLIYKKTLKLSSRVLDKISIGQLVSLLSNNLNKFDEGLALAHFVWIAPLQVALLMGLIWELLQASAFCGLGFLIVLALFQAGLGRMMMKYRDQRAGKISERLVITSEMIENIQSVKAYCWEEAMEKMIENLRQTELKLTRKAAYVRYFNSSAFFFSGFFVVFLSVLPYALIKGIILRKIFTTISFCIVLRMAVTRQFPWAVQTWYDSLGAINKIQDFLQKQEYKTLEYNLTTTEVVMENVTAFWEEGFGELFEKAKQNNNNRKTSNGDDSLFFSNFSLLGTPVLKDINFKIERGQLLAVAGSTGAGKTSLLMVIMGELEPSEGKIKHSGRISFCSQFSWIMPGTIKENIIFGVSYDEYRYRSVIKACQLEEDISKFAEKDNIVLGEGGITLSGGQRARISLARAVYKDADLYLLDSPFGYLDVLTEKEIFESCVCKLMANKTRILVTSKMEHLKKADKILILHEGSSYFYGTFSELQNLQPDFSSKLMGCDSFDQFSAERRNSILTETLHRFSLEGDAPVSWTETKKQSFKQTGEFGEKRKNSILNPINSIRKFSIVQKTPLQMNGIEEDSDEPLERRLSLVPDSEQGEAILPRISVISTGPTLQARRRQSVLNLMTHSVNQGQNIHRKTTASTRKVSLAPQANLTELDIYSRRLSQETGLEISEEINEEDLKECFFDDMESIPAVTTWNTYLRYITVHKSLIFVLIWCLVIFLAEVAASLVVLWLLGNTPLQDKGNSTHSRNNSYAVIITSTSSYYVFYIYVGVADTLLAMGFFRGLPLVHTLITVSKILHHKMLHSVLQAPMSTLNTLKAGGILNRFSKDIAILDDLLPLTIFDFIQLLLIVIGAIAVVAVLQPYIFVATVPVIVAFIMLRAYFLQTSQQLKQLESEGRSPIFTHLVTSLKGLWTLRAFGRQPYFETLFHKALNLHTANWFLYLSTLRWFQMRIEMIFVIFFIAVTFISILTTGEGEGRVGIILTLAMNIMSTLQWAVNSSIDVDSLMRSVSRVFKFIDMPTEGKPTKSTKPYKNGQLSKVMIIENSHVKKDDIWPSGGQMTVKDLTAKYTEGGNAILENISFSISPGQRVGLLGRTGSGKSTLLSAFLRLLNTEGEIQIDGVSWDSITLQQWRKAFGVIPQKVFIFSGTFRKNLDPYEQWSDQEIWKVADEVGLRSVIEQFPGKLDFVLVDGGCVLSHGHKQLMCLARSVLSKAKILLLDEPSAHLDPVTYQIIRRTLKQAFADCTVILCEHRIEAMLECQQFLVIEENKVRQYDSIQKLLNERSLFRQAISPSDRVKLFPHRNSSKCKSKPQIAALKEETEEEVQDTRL
Protocol for CFTR: Human colon adenocarcinoma-derived Caco-2 and T84 cells were obtained from the ATCC. Cells were maintained in T25 flask in Modified Eagle Medium (MEM) for Caco-2, or Ham's F12+DMEM (1:1) for T84, supplemented with 10% fetal bovine serum (FBS), 2 mM Glutamine+1% Non Essential Amino Acids (NEAA) and the antibiotics penicillin\streptomycin (100 units/ml) (all reagents from Lonza) (Luciani, A., et al. 2010. Cells were grown in Transwells (Corning, 3470 or 3460) under the normal condition (Luciani, A., et al. 2012). Briefly, 8×10^4 or 5×10^5 cells were seeded in 6.5-mm diameter or 12-mm diameter, respectively, and grown until the RT reached 800 to 1,200 Ω·cm2. Transwells with a pore size of 0.4 μm were used. Medium in both the apical and basolateral chambers was changed every other day. […] Cells were also treated with 50 or 100 μg/ml of P57-68 or PGAV peptides for 3 h. Caco-2 or T84 cells were also treated with: CFTR potentiators VX-770 (10 μM) or VX-532 (20 μM) (Selleck chemicals) or Genistein (10 μM) (Sigma-Aldrich) or in presence or absence of CFTR inhibitor172 (CFTRinh172, 20 μM) or 3-methyl-adenine (3-MA, 20 μM) (Calbiochem), Z-DON (20 nM, Zedira) or BAPTA-AM (10 μM, Calbiochem).
For detection of complex with biotnylated-P31-43 or immune-complex of glutamime-lysine bonds, the beads were resolved in non-reducing and non-denaturating conditions, and then blotted with Streptavidin-HRP (Sigma 52438) 1:3000 or anti-biotin (Abcam ab2103) 1:2500 and anti-isopeptide (Abcam 422) 1:1000.
The separation of endosomal fractions was performed as described^9 from treated and untreated cells. Protein of endosomal fraction were resolved by SDS-Page and blotted with primary antibodies against Rab-5(Abcam 18211) 1:500, Rab-7(Abcam 77993) 1:500, EEA-1 (Abcam 2900) 1:500, TG2 or CFTR. EEA-1 was used as early endosome marker. For detection of complex with biotnylated-P31-43, the beads were resolved in non-reducing and non-denaturating conditions, and then blotted with Streptavidin-HRP (Sigma S2438) 1:3000 or anti-biotin (Abcam ab2103) 1:2500.

Turning to “α-gliadin peptide LGQQQPFPPQQPY (SEQ ID 1), induces an enterocyte stress response (P31-43 sequence of alpha-gliadin)”, in the assay with CFTR, the “presence in CFTR immunoprecipitates from early endosomal protein fractions” value is recorded as “revealed the presence of biotinylated P31-43”. Also, the “interaction (co-immunoprecipitation) with CFTR” value with CFTR (1 h with biotinylated peptides) was “co-immunoprecipitated with CFTR”. Also, in the assay with CFTR (after 5 min incubation), the “co-immunoprecipitation with CFTR in clathrin+ EEA1− plasma membrane protein fractions” value was “co-immunoprecipitated”. Moreover, in the assay with Caco-2 cells, the “TG2-mediated cross-linking of PKAr2a” value is “stimulated TG2-mediated cross-linking” and the “abundance of phosphorylated PKA protein” value is on record as “decrease in the abundance of phosphorylated PKA protein”.

Take `CC(C)(C)c1cc(C(C)(C)C)c(NC(=O)c2c[nH]c3ccccc3c2=O)cc1O` [VX-770, N-(2,4-di-tert-butyl-5-hydroxyphenyl)-4-oxo-1,4-dihydroquinoline-3-carboxamide]: the “effect on co-immunoprecipitation between P31-43 and CFTR” value on CFTR is “prevented the co-immunoprecipitation between P31-43 and CFTR”. In addition, in the assay with Caco-2 cells, the “effect on P31-43-induced PKAr2a cross-linking and phospho-PKA decrease” value is listed as “counteracted all these TG2-mediated effects of P31-43”; the “protection from P31-43-induced downregulation of PPARγ” value is listed as “protected”; the “protection from P31-43-induced phosphorylation of ERK-1/2” value is given as “protected”; the “protection from P31-43-induced upregulation of HSP70 expression” value is “protected”.

The values above are taken from US20200206198A1, “CFTR CHANNEL ACTIVATOR FOR USE IN THE TREATMENT AND/OR PREVENTION OF GLUTEN SENSITIVITY CONDITIONS” (priority 2017, published 2020).
